Common to all, as to format: binding
In experiment [1] the target is T1, ASIC1a (acid-sensing ion channel 1a) (Homo sapiens, UniProt P78348).
T1 sequence (P78348 1-528): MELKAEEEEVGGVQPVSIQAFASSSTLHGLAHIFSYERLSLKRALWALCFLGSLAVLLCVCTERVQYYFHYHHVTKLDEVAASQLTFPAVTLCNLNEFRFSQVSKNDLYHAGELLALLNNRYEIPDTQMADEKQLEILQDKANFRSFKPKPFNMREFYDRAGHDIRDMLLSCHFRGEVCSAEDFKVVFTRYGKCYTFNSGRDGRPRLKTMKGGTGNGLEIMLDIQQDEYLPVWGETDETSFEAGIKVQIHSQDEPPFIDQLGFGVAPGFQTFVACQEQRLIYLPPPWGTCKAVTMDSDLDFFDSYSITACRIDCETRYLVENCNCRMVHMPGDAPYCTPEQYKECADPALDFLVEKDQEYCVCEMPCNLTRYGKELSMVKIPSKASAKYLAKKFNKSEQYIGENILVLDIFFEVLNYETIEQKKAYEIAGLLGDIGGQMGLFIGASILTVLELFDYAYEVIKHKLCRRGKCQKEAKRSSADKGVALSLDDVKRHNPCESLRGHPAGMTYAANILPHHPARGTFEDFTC
As to the kind of experiment: microscale thermophoresis in cell lysate, pH […]; patch clamp. The arrangement: gene ASIC1; GFP-tagged ASIC1a in HEK293T lysate.

For experiment [2], the target named is T1, ASIC1a (acid-sensing ion channel 1a). As to the kind of experiment: microscale thermophoresis in cell lysate, pH […] ([…] at pH […]); patch clamp. The arrangement: gene ASIC1; GFP-tagged hASIC1a in lysates of transfected HEK293T cells.
For experiment [3] the target is unchanged. The experiment can be described thus: microscale thermophoresis in cell lysate, pH […]; patch clamp (IC50 […] against glutamate potentiation). The arrangement: gene ASIC1; eGFP-tagged wild-type ASIC1a in HEK293T lysate.

In experiment [1], `O=C(O)C1CN(C(c2ccccc2)P(=O)(O)O)CCN1` (stereo not drawn) [LK-2] had a Kd of 1900 ± 400 nM.
Regarding `N[C@@H](CCC(=O)O)C(=O)O` [glutamate], the Kd in experiment [2] amounted to 113000 nM.
As to `O=C(O)[C@@H]1C[C@H](CP(=O)(O)O)CCN1` [CGS19755], the Kd in experiment [3] came to 1100 ± 200 nM.
